Experimental data as given in ChEMBL document CHEMBL4257539, “Identification of potent catalytic inhibitors of human DNA topoisomerase II by structure-based virtual screening” (Medchemcomm, 2018).
pIC50: −log10 of the molar value. Activity calls are given as the source filed them. No cut-off for these calls is given here.

How the values were obtained:
Homo sapiens [1] = organism: Homo sapiens; assay: Inhibition of human topoisomerase-2 assessed as reduction in relaxation of supercoiled pBR322 DNA at 100 uM after 30 mins by ethidium bromide staining based agarose gel electrophoresis method
ZR-75-30 = assay: Antiproliferative activity against human ZR-7530 cells after 72 hrs by MTT assay; format: functional, cell-based; settings: for pIC50: Homo sapiens, ZR-75-30, 72 h, read-out: IC50; for IC50: zr-75-30
A549 [2] = assay: cells; settings: Homo sapiens, A549, 72 h
Description: (§1) Antiproliferative activity against human A549 cells after 72 hrs by MTT assay

HCT-116 [3] = assay: cells; settings: Homo sapiens, HCT-116, 72 h
Description: (§2) Antiproliferative activity against human HCT116 cells after 72 hrs by MTT assay

A549 [4] = test system: A549
Description: as §1

HCT-116 [5] = test system: HCT-116
Description: as §2

[6] = Inhibition of human topoisomerase-2 assessed as reduction in relaxation of supercoiled pBR322 DNA after 30 mins by ethidium bromide staining based agarose gel electrophoresis method
Homo sapiens [7] = organism: Homo sapiens; assay: Inhibition of human topoisomerase-2 assessed as reduction in relaxation of supercoiled pBR322 DNA at 50 uM after 30 mins by ethidium bromide staining based agarose gel electrophoresis method

inhibition (Homo sapiens [1]) | pIC50 (A549 [2]) | pIC50 (HCT-116 [3]) | IC50 (A549 [4]) | IC50 (HCT-116 [5]) | pIC50 [6] | SMILES | pIC50 (ZR-75-30) | IC50 (ZR-75-30) | inhibition (Homo sapiens [7])
Active | 4.43 | 5.00 |  |  |  | COc1ccc(-c2cc(-c3ccccc3)c(C#N)c(SCC(=O)O)n2)cc1 | 4.85 |  | 
Active |  | 4.27 | Not Active |  |  | O=C(O)COc1ccc(/C=N/n2c(COc3ccccc3)nc3ccccc3c2=O)cc1 | 4.24 |  | 
Active | 5.92 | 6.00 |  |  |  | COc1ccc(C(=O)Cn2c(=N)n(Cc3ccc(C)cc3)c3ccccc32)cc1 | 5.92 |  | 
Active |  |  | Not Active | Not Active |  | O=C(O)CCc1nn2c3ccccc3n(Cc3ccccc3)c2nc1=O |  | Not Active | 

The next lines start with the compound.

SMILES | inhibition (Homo sapiens [1]) | pIC50 (A549 [2]) | pIC50 (HCT-116 [3]) | IC50 (A549 [4]) | IC50 (HCT-116 [5]) | pIC50 [6] | pIC50 (ZR-75-30) | IC50 (ZR-75-30) | inhibition (Homo sapiens [7])
N#Cc1c(-c2ccc(F)cc2)cc(-c2ccccc2)nc1SCC(=O)NCC(=O)O | Active |  |  | Not Active | Not Active |  |  | Not Active | 
NS(=O)(=O)c1ccc(NC(=O)CSc2nnc3ccc4ccccc4n23)cc1 |  |  |  | Not Active | Not Active |  |  | Not Active | 
O=C(O)CCSc1nnc(-c2cccnc2)n1CCc1ccccc1 |  |  |  | Not Active | Not Active |  |  | Not Active | 
CC(C)(O)C#Cc1cc(C(=O)NCCc2ccc(S(N)(=O)=O)cc2)c2oc(C(C)(C)O)cc2c1 | Active |  |  | Not Active | Not Active | 3.46 | 4.21 |  | 
C=CCn1c(CN2c3ccccc3Sc3ccccc32)nnc1SCC(=O)O |  |  | 4.49 | Not Active |  |  | 4.82 |  | 
Cc1cc(C(=O)O)ccc1-c1ccc(/C=c2/sc3nc4ccccc4n3c2=O)o1 | Active |  |  | Not Active | Not Active | 4.39 |  | Not Active | 
O=C(O)c1ccc2c(c1)C(=O)N(c1ccc(C(=O)OCC(=O)c3ccccc3)cc1)C2=O | Active |  |  | Not Active | Not Active |  |  | Not Active | 
COc1cc([C@@H]2c3cc4c(cc3[C@@H](O[C@@H]3O[C@@H]5CO[C@@H](C)O[C@H]5[C@H](O)[C@H]3O)[C@H]3COC(=O)[C@H]23)OCO4)cc(OC)c1O [ETOPOSIDE] | Active | 4.17 | 5.96 |  |  | 3.74 | 5.82 |  | inactive
